Assay results taken from patent EP2876105A1, “1-(CYCLOALKYL-CARBONYL)PROLINE DERIVATIVE” (Sumitomo Dainippon Pharma Co., Ltd., priority 2012, dated 2014).
Like-named read-outs stand apart in the source and are kept apart here. Values belong to the molecule of their own block, whether it stands above or below them.

What was measured:
[1] = system: rabbit model with venous thrombus; test: Rabbit in vivo antithrombotic action evaluation test (venous thrombus model, thrombus weight); details: i.v.
From the text: A rabbit model with venous thrombus was produced by modifying the report of Wienen et al. (Wienen W. et al., J. Thromb. Haemost. 5:1237-1242 (2007)). A male rabbit (JW, 2-4 kg) was narcotized by inhalation of isoflurane (ISOFLU®, manufactured by DS Pharma Animal Health) (inductive anesthesia: 4%, continuous anesthesia: 1.5% to 2.5%). For intravenous administration of a test agent and blood collection, catheters were inserted into the left femoral vein and the left femoral artery. The left external jugular vein was exposed (2 cm) from a branch of the facial vein, the microvascular branch was then ligated, and a catheter was then inserted into the posterior facial vein. The external jugular vein (2 cm) exposed from each of an anterior facial vein branch and a facial vein branch was ligated with an artery clamp, and blood was then removed from a catheter left in the posterior facial vein. Blood in the blood vessel was washed with a normal saline, and 0.5% polidocanol (manufactured by Sigma) was injected into the blood vessel. It was then left for 5 minutes, so that the occurrence of a disorder in vascular endothelium was provoked. Thereafter, 0.5% polidocanol was removed, the inside of the blood vessel was then washed with a normal saline, and the artery clamp was then removed. The external jugular vein (2 cm) exposed from the facial vein branch, together with an injection needle 21G (manufactured by Terumo), was ligated with a silk thread, so that the inner diameter of the blood vessel was reduced to 0.8 mm. Twenty-five minutes after recirculation of the blood flow, the external jugular vein (2cm) exposed from the facial vein branch was excised, and the wet weight and dry weight of a thrombus formed in the blood vessel were measured. A test agent or a vehicle was administered to the rabbit 2 minutes before recirculation of the blood flow.

[2] = target: human FXIa (Homo sapiens, UniProt P03951); test: In vitro activated factor XI (FXIa) inhibition test; format: biochemical
Sequence of human FXIa (P03951 388-625 limits assumed): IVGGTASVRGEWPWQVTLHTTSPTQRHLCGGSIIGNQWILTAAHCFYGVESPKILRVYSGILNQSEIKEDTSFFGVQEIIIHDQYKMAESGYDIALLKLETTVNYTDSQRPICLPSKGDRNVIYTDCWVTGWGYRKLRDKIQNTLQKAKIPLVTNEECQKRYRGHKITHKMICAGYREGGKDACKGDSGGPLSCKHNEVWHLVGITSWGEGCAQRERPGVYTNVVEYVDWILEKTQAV
Sequence of human FXIa (P03951 19-387 partner limits assumed): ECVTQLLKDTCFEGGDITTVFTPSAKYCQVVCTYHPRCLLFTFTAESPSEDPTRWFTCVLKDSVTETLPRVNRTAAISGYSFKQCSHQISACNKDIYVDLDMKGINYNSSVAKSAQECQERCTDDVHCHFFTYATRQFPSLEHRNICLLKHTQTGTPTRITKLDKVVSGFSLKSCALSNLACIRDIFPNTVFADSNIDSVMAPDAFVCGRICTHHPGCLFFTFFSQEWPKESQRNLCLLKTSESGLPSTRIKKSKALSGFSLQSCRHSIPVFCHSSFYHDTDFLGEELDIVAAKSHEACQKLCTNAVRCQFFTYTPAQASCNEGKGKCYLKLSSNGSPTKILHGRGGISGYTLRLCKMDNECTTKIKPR
Procedure: To the substrate, S-2366 (pyroGlu-Pro-Arg-pNA•HCl) was added to a final concentration of 300 µmol/L. After the reaction had progressed, the absorbance at OD 405 nm was measured. […]

[3] = system: endogenous coagulation pathway; test: Activated partial thromboplastin time (aPTT) of blood sample from the rabbit venous thrombus test; format: in vivo; details: i.v.; for aPTT: blood collected 2 minutes after administration
Procedure: In order to measure the activated partial thromboplastin time (aPTT) of the blood sample, which was to be used as an indicator of an endogenous coagulation pathway, 2 minutes after the administration of the test agent or the vehicle, blood was collected, and plasma was then prepared using 3.2% sodium citrate. The prepared plasma was incubated at 37°C for 7 minutes, and an STA reagent Cephascreen (used for aPTT measurement; manufactured by Roche Diagnostics) was added in an equal amount to the resulting plasma, and the obtained mixture was further incubated for 3 minutes. Thereafter, STA calcium chloride (manufactured by Roche Diagnostics) was added in an equal amount to the resultant, and the time required until coagulation was then measured.

[4] = Ester metabolism stabilization test: stabilization in human plasma test; format: in vitro ADME; details: 37°C, 30 minutes
Procedure: 198 µL of human plasma (manufactured by Cosmo Bio) was added to 2 µL of a DMSO solution containing 100 µmol/L test substance, and the obtained mixture was then incubated at 37°C for 30 minutes. After completion of the incubation, 600 µL of acetonitrile was added to the reaction solution, so that the metabolic reaction was terminated. The residual percentage of the test substance was measured using LC (LC-20A manufactured by Shimadzu Corporation) and -MS (API4000 manufactured by AB Sciex).

[5] = Ester metabolism stabilization test: human liver stabilization test; format: in vitro ADME; details: human liver S9 with NADPH, 37°C, 30 minutes
Procedure: A reaction solution prepared by mixing 5 µL of human liver S9 (manufactured by Xenotech, 20 mg/mL), 20 µL of 500 mmol/L Kpi (pH7.4), 40 µL of 5 mmol/L NADPH (manufactured by Oriental Yeast Co., Ltd.) aqueous solution, and 133 µL of ion exchange water was added to 2 µL of a DMSO solution containing 100 µmol/L test substance, and the thus obtained mixture was then incubated at 37°C for 30 minutes. After completion of the incubation, 600 µL of acetonitrile was added to the reaction solution, so that the metabolic reaction was terminated. The residual percentage of the test substance was measured using LC (LC-20A manufactured by Shimadzu Corporation) and -MS (API4000 manufactured by AB Sciex).

[6] = 0.35 µg/mL human FXIa, substrate S-2366 300 µmol/L, 37°C, 10 minutes, OD 405 nm, read-out: FXIa inhibitory activity IC50

Structure (SMILES): N[C@H](CF)[C@H]1CC[C@H](C(=O)N2CCC(C3CCCCC3)[C@H]2C(=O)Nc2ccc3oc(C(=O)O)cc3c2)CC1 (single isomer, unassigned) [compound 53]
Thrombus (% inhibition) ([1]; dose 0.1 mg/kg): 25%
Thrombus weight ([1]; dose 0.1 mg/kg): 51.3 mg
Thrombus (% inhibition) ([1]; dose 0.3 mg/kg): 56%
Thrombus weight ([1]; dose 0.3 mg/kg): 30.3 mg
Thrombus (% inhibition) ([1]; dose 1.0 mg/kg): 79%
Thrombus weight ([1]; dose 1.0 mg/kg): 14.7 mg
Thrombus (% inhibition) ([1]; dose 3.0 mg/kg): 80%
Thrombus weight ([1]; dose 3.0 mg/kg): 14.0 mg
IC50 [2]: 34 nM
aPTT (% vehicle) ([3]; dose 0.1 mg/kg): 103%
aPTT ([3]; dose 0.1 mg/kg): 17.8 s
aPTT (% vehicle) ([3]; dose 0.3 mg/kg): 117%
aPTT ([3]; dose 0.3 mg/kg): 20.3 s
aPTT (% vehicle) ([3]; dose 1.0 mg/kg): 140%
aPTT ([3]; dose 1.0 mg/kg): 24.2 s
aPTT (% vehicle) ([3]; dose 3.0 mg/kg): 166%
aPTT ([3]; dose 3.0 mg/kg): 28.8 s

Structure (SMILES): N[C@H](CF)[C@H]1CC[C@H](C(=O)N2CCC(C3CCCCC3)[C@H]2C(=O)Nc2ccc3sc(C(=O)O)cc3c2)CC1 (single isomer, unassigned) [compound 130]
IC50 [2]: 195 nM

Structure (SMILES): NC[C@H]1CC[C@H](C(=O)N2CC[C@@H](c3ccccc3)[C@H]2C(=O)Nc2ccc(-c3nc(=O)o[nH]3)c(F)c2)CC1 [compound 14]
IC50 [2, 6]: 130 nM

IC50 [2, 6]: 34 nM
Structure (SMILES): NC[C@H]1CC[C@H](C(=O)N2CCC(c3ccccc3)[C@H]2C(=O)Nc2ccc3[nH]c(C(N)=O)cc3c2)CC1 (some centres unmarked) [compound 24]

Structure (SMILES): Cn1c(C(=O)O)cc2cc(NC(=O)[C@@H]3[C@H](C4CCCCC4)CCN3C(=O)[C@H]3CC[C@H](C(N)CF)CC3)ccc21 (some centres unmarked) [compound 29]
IC50 [2, 6]: 82 nM

Structure (SMILES): NC(CF)[C@H]1CC[C@H](C(=O)N2CC[C@@H](C3CCCCC3)[C@H]2C(=O)Nc2ccc3[nH]c(C(=O)O)c(Cl)c3c2)CC1 (some centres unmarked) [compound 34]
IC50 [2, 6]: 28 nM

Structure (SMILES): NC(CF)[C@H]1CC[C@H](C(=O)N2CC[C@@H](C3CCCCC3)[C@H]2C(=O)Nc2ccc3[nH]c(C(=O)O)cc3c2)CC1 (some centres unmarked) [compound 35]
IC50 [2, 6]: 14 nM

Structure (SMILES): Cc1c(C(=O)O)[nH]c2ccc(NC(=O)[C@@H]3[C@H](C4CCCCC4)CCN3C(=O)[C@H]3CC[C@H](C(N)CF)CC3)cc12 (some centres unmarked) [compound 39]
IC50 [2, 6]: 63 nM

Structure (SMILES): CC(N)[C@H]1CC[C@H](C(=O)N2CC[C@H](c3ccccc3)[C@H]2C(=O)Nc2ccc3oc(C(=O)O)cc3c2)CC1 (some centres unmarked) [compound 46]
IC50 [2, 6]: 90 nM

Structure (SMILES): NC(CF)[C@H]1CC[C@H](C(=O)N2CC[C@@H](C3CCCCC3)[C@H]2C(=O)Nc2ccc3oc(C(=O)O)cc3c2)CC1 (some centres unmarked) [compound 50]
IC50 [2]: 84 nM

Structure (SMILES): Cc1c(C(=O)O)oc2ccc(NC(=O)[C@@H]3[C@H](C4CCCCC4)CCN3C(=O)[C@H]3CC[C@H]([C@H](N)CF)CC3)cc12 [compound 55]
IC50 [2, 6]: 220 nM

Residual percentage (%) Human plasma [4]: 92%
Residual percentage (%) Human liver S9 [5]: 5.8%
Structure (SMILES): COCCCOC(=O)c1cc2cc(NC(=O)[C@@H]3[C@H](C4CCCCC4)CCN3C(=O)[C@H]3CC[C@H]([C@H](N)CF)CC3)ccc2o1 [compound 82]

Structure (SMILES): N[C@H](CF)[C@H]1CC[C@H](C(=O)N2CC[C@@H](C3CCCCC3)[C@H]2C(=O)Nc2ccc(C(=O)O)cc2)CC1 [compound 96]
IC50 [2, 6]: 98 nM

Structure (SMILES): COC1CCC([C@@H]2CCN(C(=O)[C@H]3CC[C@H]([C@H](N)CF)CC3)[C@@H]2C(=O)Nc2ccc3oc(C(=O)O)cc3c2)CC1 (some centres unmarked) [compound 102]
IC50 [2]: 93 nM

Structure (SMILES): COC1CCC([C@@H]2CCN(C(=O)[C@H]3CC[C@H]([C@H](N)CF)CC3)[C@@H]2C(=O)Nc2ccc3oc(C(=O)O)cc3c2)CC1 (some centres unmarked) [compound 103]
IC50 [2, 6]: 2350 nM

Structure (SMILES): CS(=O)(=O)NC(=O)c1cc2cc(NC(=O)[C@@H]3[C@H](C4CCCCC4)CCN3C(=O)[C@H]3CC[C@H]([C@H](N)CF)CC3)ccc2[nH]1 [compound 114]
IC50 [2, 6]: 7 nM

Structure (SMILES): Cc1noc(-c2ccc(NC(=O)[C@@H]3[C@H](C4CCCCC4)CCN3C(=O)[C@H]3CC[C@H]([C@H](N)CF)CC3)cc2)n1 [compound 115]
IC50 [2, 6]: 1500 nM

Structure (SMILES): N[C@H](CF)[C@H]1CC[C@H](C(=O)N2CC[C@@H](C3CCCCC3)[C@H]2C(=O)Nc2ccc(C(=O)NS(=O)(=O)c3ccccc3)cc2)CC1 [compound 118]
IC50 [2]: 65 nM

Residual percentage (%) Human plasma [4]: 65%
Residual percentage (%) Human liver S9 [5]: 4.9%
Structure (SMILES): CC(OC(=O)OC1CCCCC1)OC(=O)c1cc2cc(NC(=O)[C@@H]3[C@@H](c4ccccc4)CCN3C(=O)[C@H]3CC[C@H]([C@H](N)CF)CC3)ccc2[nH]1 (some centres unmarked) [compound 120]

Structure (SMILES): N[C@H](CF)[C@H]1CC[C@H](C(=O)N2CC[C@@H](C3CCCCC3)[C@H]2C(=O)Nc2ccc3oc(C(=O)NS(=O)(=O)c4ccccc4)cc3c2)CC1 [compound 121]
IC50 [2]: 43 nM

Structure (SMILES): N[C@H](CF)[C@H]1CC[C@H](C(=O)N2CC[C@H](c3ccccc3)[C@H]2C(=O)Nc2ccc3[nH]c(C(=O)NS(=O)(=O)N4CCOCC4)cc3c2)CC1 [compound 122]
IC50 [2]: 690 nM

Residual percentage (%) Human plasma [4]: 86%
Residual percentage (%) Human liver S9 [5]: 5.6%
Structure (SMILES): CCC(=O)OC(OC(=O)c1cc2cc(NC(=O)[C@@H]3[C@@H](c4ccccc4)CCN3C(=O)[C@H]3CC[C@H]([C@H](N)CF)CC3)ccc2[nH]1)C(C)C (some centres unmarked) [compound 125]

Structure (SMILES): N[C@H](CF)[C@H]1CC[C@H](C(=O)N2CC[C@@H](C3CCCCC3)[C@H]2C(=O)Nc2ccc(C(=O)NS(=O)(=O)c3ccccc3)c(F)c2)CC1 [compound 133]
IC50 [2, 6]: 99 nM

Structure (SMILES): N[C@H](CF)[C@H]1CC[C@H](C(=O)N2CC[C@@H](C3CCCCC3)[C@H]2C(=O)Nc2ccc(C(=O)NS(=O)(=O)c3ccccn3)cc2)CC1 [compound 134]
IC50 [2]: 54 nM

Structure (SMILES): N[C@H](CF)[C@H]1CC[C@H](C(=O)N2CC[C@@H](C3CCCCC3)[C@H]2C(=O)Nc2ccc(C(=O)NCc3ccccn3)cc2)CC1 [compound 137]
IC50 [2]: 380 nM

Structure (SMILES): N[C@H](C(F)F)[C@H]1CC[C@H](C(=O)N2CC[C@@H](C3CCCCC3)[C@H]2C(=O)Nc2ccc3oc(C(=O)O)cc3c2)CC1 [compound 146]
IC50 [2, 6]: 916 nM

Structure (SMILES): CS(=O)(=O)NC(=O)c1ccc(NC(=O)[C@@H]2[C@H](C3CCCCC3)CCN2C(=O)[C@H]2CC[C@H]([C@H](N)CF)CC2)cc1 [compound 147]
IC50 [2, 6]: 205 nM

Structure (SMILES): COC(=O)Nc1nc2ccc(NC(=O)[C@@H]3[C@H](C4CCCCC4)CCN3C(=O)[C@H]3CC[C@H]([C@H](N)CF)CC3)cc2s1 [compound 148]
IC50 [2, 6]: 140 nM

Structure (SMILES): N[C@H](CF)[C@H]1CC[C@H](C(=O)N2CC[C@@H](C3CCCCC3)[C@H]2C(=O)Nc2ccc3[nH]c(C(=O)O)c(Cl)c3c2)CC1 [compound 184]
IC50 [2, 6]: 30 nM

Structure (SMILES): COC1CCC([C@H]2CCN(C(=O)[C@H]3CC[C@H]([C@H](N)CF)CC3)[C@H]2C(=O)Nc2ccc3oc(C(=O)O)cc3c2)CC1 (some centres unmarked) [compound 187]
IC50 [2]: 285 nM

Structure (SMILES): COCCOCCCOC(=O)c1cc2cc(NC(=O)[C@@H]3[C@H](C4CCC(OC)CC4)CCN3C(=O)[C@H]3CC[C@H]([C@H](N)CF)CC3)ccc2o1 (some centres unmarked) [compound 196]
IC50 [2]: 3500 nM

Structure (SMILES): CN(C)S(=O)(=O)NC(=O)c1cc2cc(NC(=O)[C@@H]3[C@H](C4CCCCC4)CCN3C(=O)[C@H]3CC[C@H]([C@H](N)CF)CC3)ccc2o1 [compound 211]
IC50 [2, 6]: 29 nM

Structure (SMILES): N[C@H](CF)[C@H]1CC[C@H](C(=O)N2CC[C@@H](C3CCCCC3)[C@H]2C(=O)Nc2ccc3oc(C(=O)NS(=O)(=O)N4CCOCC4)cc3c2)CC1 [compound 212]
IC50 [2]: 8 nM

Structure (SMILES): N[C@H](CF)[C@H]1CC[C@H](C(=O)N2CC[C@@H](C3CCCCC3)[C@H]2C(=O)Nc2ccc3[nH]c(C(=O)NS(=O)(=O)N4CCCCC4)cc3c2)CC1 [compound 213]
IC50 [2, 6]: 10 nM
